Measurements published in the supplement of paper PMC11208160.

Experiment: recombinant UMI read abundance after kanamycin selection (control-corrected) (log10(CPM+1)); higher = more efficient recombination; extreme values may be limits of the assay; sequences stand for … in AGTGCAGAGAAAATCGGCCAGTTTTCTCTGCCTGCAGTCCGCATGCCGTGGGACCCCTTGGGTTCTAACCTGTTGCCTAGATTTATGCAGCGGACTGCCTTTCTCCCAAAGTGATAAACCGG…AGGTTGGTTTCACT; site = the 11-nt donor
Outline: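 Reported values are log10(CPM+1) from a pooled Escherichia coli screen of donor and donor-binding-loop pairs for the IS621 bridge recombinase. Selection used IPTG (0.07 mM) plus kanamycin, against unselected plating, each in two replicates. Recombinant UMIs were amplified across the donor–target junction, sequenced, converted to CPM, averaged over replicates and scaled by control-derived factors.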
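Further: IS621 bridge recombinase in Escherichia coli cells against a fixed T5 target plasmid.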

Row | Sequence | recombinant UMI read abundance (log10)
1 | AGCCTTTCATGGACCGGTTTTCCCGGTAATCCGTATTTGAC (site AGCCTATCTGT) | 1.73
2 | AGCCTTTCATGGACCGGTTTTCCCGGTAATCCGTATTTGAC (site AGCCTCTCTGT) | 0
3 | AGCCTTTCATGGACCGGTTTTCCCGGTAATCCGTATTTGAC (site AGCCTGTCTGT) | 0
4 | AGCCTTTCATGGACCGGTTTTCCCGGTAATCCGTATTTGAC (site AGCCTTACTGT) | 0
5 | AGCCTTTCATGGACCGGTTTTCCCGGTAATCCGTATTTGAC (site AGCCTTCCTGT) | 0
6 | AGCCTTTCATGGACCGGTTTTCCCGGTAATCCGTATTTGAC (site AGCCTTGCTGT) | 0
7 | AGCCTTTCATGGACCGGTTTTCCCGGTAATCCGTATTTGAC (site AGCCTTTCTAT) | 0
8 | AGCCTTTCATGGACCGGTTTTCCCGGTAATCCGTATTTGAC (site AGCCTTTCTCT) | 0.00414
9 | AGCCTTTCATGGACCGGTTTTCCCGGTAATCCGTATTTGAC (site AGCCTTTCTGA) | 0
10 | AGCCTTTCATGGACCGGTTTTCCCGGTAATCCGTATTTGAC (site AGCCTTTCTGC) | 0
11 | AGCCTTTCATGGACCGGTTTTCCCGGTAATCCGTATTTGAC (site AGCCTTTCTGG) | 0
12 | AGCCTTTCATGGACCGGTTTTCCCGGTAATCCGTATTTGAC (site AGCCTTTCTGT) | 0
13 | AGCCTTTCATGGACCGGTTTTCCCGGTAATCCGTATTTGAC (site AGCCTTTCTTT) | 0
14 | AGCCTTTCATGGACCGGTTTTCCCGGTAATCCGTATTTGAC (site AGCGTTTCTGT) | 0
15 | AGCCTTTCATGGACCGGTTTTCCCGGTAATCCGTATTTGAC (site AGCTTTTCTGT) | 0
16 | AGCCTTTCATGGACCGGTTTTCCCGGTAATCCGTATTTGAC (site AGGCTTTCTGT) | 0
17 | AGCCTTTCATGGACCGGTTTTCCCGGTAATCCGTATTTGAC (site AGTCTTTCTGT) | 0
18 | AGCCTTTCATGGACCGGTTTTCCCGGTAATCCGTATTTGAC (site ATCCTTTCTGT) | 0
19 | AGCCTTTCATGGACCGGTTTTCCCGGTAATCCGTATTTGAC (site CGCCTTTCTGT) | 0
20 | AGCCTTTCATGGACCGGTTTTCCCGGTAATCCGTATTTGAC (site GGCCTTTCTGT) | 0
21 | AGCCTTTCATGGACCGGTTTTCCCGGTAATCCGTATTTGAC (site TGCCTTTCTGT) | 0
22 | AGCCTTTCATGGACCGGTTTTCCCGGTAATCCGTATTTGCC (site AGCCTTTCTGA) | 0
23 | AGCCTTTCATGGACCGGTTTTCCCGGTAATCCGTATTTGCC (site AGCCTTTCTGC) | 0
24 | AGCCTTTCATGGACCGGTTTTCCCGGTAATCCGTATTTGCC (site AGCCTTTCTGG) | 1.05
25 | AGCCTTTCATGGACCGGTTTTCCCGGTAATCCGTATTTGCC (site AGCCTTTCTGT) | 0

Row | Sequence | recombinant UMI read abundance (log10)
26 | AGCGCAGCATGGACCGGTTTTCCCGGTAATCCGTATTTGCG (site AGCGCAGCTCG) | 1.01
27 | AGCGCAGCATGGACCGGTTTTCCCGGTAATCCGTATTTGGG (site AGCACAGCTCC) | 0
28 | AGCGCAGCATGGACCGGTTTTCCCGGTAATCCGTATTTGGG (site AGCCCAGCTCC) | 0.0111
29 | AGCGCAGCATGGACCGGTTTTCCCGGTAATCCGTATTTGGG (site AGCGCAGCTCC) | 0.0103
30 | AGCGCAGCATGGACCGGTTTTCCCGGTAATCCGTATTTGGG (site AGCTCAGCTCC) | 0.0119
31 | AGCGCGACATGGACCGGTTTTCCCGGTAATCCGTATTTGAG (site AGCGCGACTCT) | 1.27
32 | AGCGGTCCATGGACCGGTTTTCCCGGTAATCCGTATTTGAC (site AGCGGTCCTGT) | 0
33 | AGCTAACCATGGACCGGTTTTCCCGGTAATCCGTATTTGAA (site AGCTAACCTTT) | 0.00558
34 | AGCTAACCATGGACCGGTTTTCCCGGTAATCCGTATTTGTG (site AGCTAACCTCA) | 0.00444
35 | AGCTACGCATGGACCGGTTTTCCCGGTAATCCGTATTTGGG (site AGCTACGCTCC) | 0.0157
36 | AGCTATGCATGGACCGGTTTTCCCGGTAATCCGTATTTGAT (site AGCTATGCTAT) | 1.79
37 | AGCTCGGCATGGACCGGTTTTCCCGGTAATCCGTATTTGGG (site AGCTCAGCTCC) | 0.0161
38 | AGCTCGGCATGGACCGGTTTTCCCGGTAATCCGTATTTGGG (site AGCTCCGCTCC) | 0.0225
39 | AGCTCGGCATGGACCGGTTTTCCCGGTAATCCGTATTTGGG (site AGCTCGGCTCC) | 0
40 | AGCTCGGCATGGACCGGTTTTCCCGGTAATCCGTATTTGGG (site AGCTCTGCTCC) | 0
41 | AGCTCTACATGGACCGGTTTTCCCGGTAATCCGTATTTGAA (site AGCTCTACTTT) | 0
42 | AGCTCTGCATGGACCGGTTTTCCCGGTAATCCGTATTTGGT (site AGCTCTGCTAC) | 1.36
43 | AGCTGAGCATGGACCGGTTTTCCCGGTAATCCGTATTTGCC (site AGCTGAGCTGG) | 0.908
44 | AGCTTGCCATGGACCGGTTTTCCCGGTAATCCGTATTTGGC (site AGCTTGCCTGC) | 0
45 | AGCTTGTCATGGACCGGTTTTCCCGGTAATCCGTATTTGAG (site AGCTTGTCTCT) | 1.62
46 | AGGAAATCATGGACCGGTTTTCCCGGTAATCCGTATTTGCA (site AGGAAATCTTG) | 1.9
47 | AGGAAATCATGGACCGGTTTTCCCGGTAATCCGTATTTGCA (site AGGAAGACTTG) | 0
48 | AGGAAATCATGGACCGGTTTTCCCGGTAATCCGTATTTGGT (site AGGAAATCTAC) | 1.73
49 | AGGAAGACATGGACCGGTTTTCCCGGTAATCCGTATTTGCG (site AGGAAGACTAG) | 0.0723
50 | AGGAAGACATGGACCGGTTTTCCCGGTAATCCGTATTTGCG (site AGGAAGACTCG) | 2.32

Row | Sequence | recombinant UMI read abundance (log10)
51 | AGGAAGACATGGACCGGTTTTCCCGGTAATCCGTATTTGCG (site AGGAAGACTGG) | 0
52 | AGGAAGACATGGACCGGTTTTCCCGGTAATCCGTATTTGCG (site AGGAAGACTTG) | 1.73
53 | AGGAATACATGGACCGGTTTTCCCGGTAATCCGTATTTGCT (site AGGAAGACTTG) | 0
54 | AGGAATACATGGACCGGTTTTCCCGGTAATCCGTATTTGCT (site AGGAATACTAG) | 2.18
55 | AGGAATCCATGGACCGGTTTTCCCGGTAATCCGTATTTGTA (site AGGAATCCTTA) | 0.615
56 | AGGAATCCATGGACCGGTTTTCCCGGTAATCCGTATTTGTA (site CGGAATCCTAA) | 0.00925
57 | AGGACACCATGGACCGGTTTTCCCGGTAATCCGTATTTGTA (site AGGACACCTTA) | 0.189
58 | AGGACATCATGGACCGGTTTTCCCGGTAATCCGTATTTGCT (site AGGACATCTAG) | 1.48
59 | AGGACATCATGGACCGGTTTTCCCGGTAATCCGTATTTGCT (site CGGACATCTAG) | 1.01
60 | AGGACATCATGGACCGGTTTTCCCGGTAATCCGTATTTGCT (site GGGACATCTAG) | 0.0498
61 | AGGACATCATGGACCGGTTTTCCCGGTAATCCGTATTTGCT (site TGGACATCTAG) | 1.15
62 | AGGACCCCATGGACCGGTTTTCCCGGTAATCCGTATTTGGT (site AGGACCCCTAC) | 0.297
63 | AGGACGGCATGGACCGGTTTTCCCGGTAATCCGTATTTGAA (site AGGACGGCTTT) | 1.73
64 | AGGACTACATGGACCGGTTTTCCCGGTAATCCGTATTTGAC (site AAGACTACTGT) | 0.848
65 | AGGACTACATGGACCGGTTTTCCCGGTAATCCGTATTTGAC (site ACGACTACTGT) | 0.945
66 | AGGACTACATGGACCGGTTTTCCCGGTAATCCGTATTTGAC (site AGAACTACTGT) | 2.18
67 | AGGACTACATGGACCGGTTTTCCCGGTAATCCGTATTTGAC (site AGCACTACTGT) | 0.0103
68 | AGGACTACATGGACCGGTTTTCCCGGTAATCCGTATTTGAC (site AGGAATACTGT) | 1.29
69 | AGGACTACATGGACCGGTTTTCCCGGTAATCCGTATTTGAC (site AGGACAACTGT) | 0.797
70 | AGGACTACATGGACCGGTTTTCCCGGTAATCCGTATTTGAC (site AGGACCACTGT) | 0.969
71 | AGGACTACATGGACCGGTTTTCCCGGTAATCCGTATTTGAC (site AGGACGACTGT) | 0.00571
72 | AGGACTACATGGACCGGTTTTCCCGGTAATCCGTATTTGAC (site AGGACTACTAT) | 0.00291
73 | AGGACTACATGGACCGGTTTTCCCGGTAATCCGTATTTGAC (site AGGACTACTCT) | 0.0111
74 | AGGACTACATGGACCGGTTTTCCCGGTAATCCGTATTTGAC (site AGGACTACTGA) | 0
75 | AGGACTACATGGACCGGTTTTCCCGGTAATCCGTATTTGAC (site AGGACTACTGC) | 0.68
